Results reported in patent US20080176787A1, “Parathyroid hormone analogues and methods of use” (priority 2005, published 2008).
Positions of bridges follow the written chain, without caps; N, C: chain ends. Residues, ends and D or L forms follow the SMILES beside them.

Assays:
[1] = test system: post-menopausal women with low bone mineral density; assay: Dose/weight cutoff subgroup analysis and modeling of Phase II 30 and 45 μg cohorts; type: in vivo, human; set-up: Mean LS-BMD / FN-BMD / TH-BMD / P1NP / CTx: unit not given here
Description: The effect of the dose optimization strategy was evaluated by performing subgroup analyses using actual data from the 30 and 45 μg cohorts of the study (i.e. creation of a new subgroup by combining all patients below the weight cutoff from the 30 μg dose group with all patients above the weight cutoff from the 45 μg dose group, shown in the table below).
A variety of new subgroups were created out of the patients who participated in the Phase II clinical trial. The groups from Phase II are shown above, where each group received a single dose, either 7.5 μg, 15 μg, 30 μg, 45 μg, or placebo. The 30 μg and 45 μg dose groups were re-grouped, according to the weight of the patient, and over 100 new sub-groups were created. This approach of creating new sub-groups out of dosages which are relatively close to each other, is a novel way of conducting Phase II studies.
For the 105 patients who were originally given 30 or 45 μg, new groups were created by utilizing multiple weight cut-offs in increments of 0.5 kg. For example, one new group had the weight cut-off at 59 kg, meaning that every patient from the original low dose (30 μg) group who weighed less than 59 kg and every patient who weighed more than 59 kg from the original high dose (45 μg) group formed a new cohort. This new cohort represents a dose/weight cut-off of 59 kg, a group in which patients weighing less than 59 kg receive the low dose (30 μg) and patients weighing more than 59 kg receive the high dose (45 μg). Another example can be illustrated using a weight cutoff of 68 kg. Such a group would include all those patients who weigh less than 68 kg and who originally received the low dose (30 μg) as well as all those patients who weigh more than 68 kg and who originally received the high dose (45 μg). By using this method, over 100 separate cohorts were created by altering the dose/weight cut-off in increments of 0.5 kg. A summary of the data generated by these new dose/weight cut-off cohorts, using 68 kg and 59 kg as the dose/weight cut-off, is shown in the table below.
The table above illustrates the actual clinical profile obtained for two dose/weight cutoffs (59 kg which produces a higher exposure profile since more patients receive the higher dose and 68 kg in which more patients receive the lower dose). […] One problem with simple subgroup analysis is that endpoints with a small number of events can skew the observed profile because of large changes in incidence when one of these events moves from one side of the weight cutoff to the other. Therefore, the dose/weight cutoff methodology was applied systematically to the data from the 30 and 45 μg dose groups starting at the lowest weight patient in the study (corresponds to the 45 μg profile because everyone receives the high dose) and increasing the cutoff by 0.5 kg increments through 100 kg (corresponding to the 30 μg profile because everyone receives the low dose). The multiple cutoff profiles thus obtained when graphed can then smooth out the effect of individual events as illustrated for the effect on hypercalcemia. The effect of weight cutoff on clinical profile can then be modeled to eliminate the skewing effects of individual data points as illustrated in FIG. 37-40. This approach has been applied to primary and secondary endpoints in the study.
An important benefit of this modeling is that it is possible to project a clinical profile for a specific weight cutoff/dose exposure window with a high degree of accuracy since the effect of individual events is eliminated. The anticipated hypercalcemia and lumbar spine BMD profile for a 68 kg cutoff is illustrated in the table below, which compares the modeled hypercalcemia and lumbar spine BMD changes and the actual Phase II data for the 68 kg weight cutoff. It will also be possible to model the effects of even narrower exposure windows by using multiple dose cutoffs and different doses.

[2] = test system: gonad-intact cynomolgus monkeys; assay: 52-week (12 months) daily subcutaneous study in gonad-intact young cynomolgus monkeys: bone mass, histomorphometry, % cortical porosity; type: in vivo
Description: The peptide [Leu^27]cyclo[Glu^22-Lys^26]-hPTH-(1-31)-NH2 Ostabolin-C™ was administered daily by subcutaneous injection to gonad-intact cynomolgus monkeys (4/sex/group) at dose levels of 0, 2, 10 and 25 μg/kg for 52 weeks. Monkeys were 30 to 40 months of age (2.3-3.5 kg) at treatment start. Tibiae were retained for histomorphometry following labeling with calcein green 15 and 5 days prior to euthanasia. Bone mass, as measured by DXA (dual-energy x-ray absorptiometry) and QCT (quantitative computed tomography), was increased at the lumbar spine, femur and tibia. Changes in vertebral BMD (bone mineral density) translated into significant increases in bone strength. […] Tibial cancellous bone volume increased by more than 50% in all the peptide [Leu^27]cyclo[Glu^22-Lys^26]-hPTH-(1-31)-NH2 treated groups compared to controls and in the tibial mid-diaphysis, increases in cortical width and relative cortical area with concurrent decreases in medullary area were observed. […] Increases in indices of bone formation were associated with decreases in indices of bone resorption (decreased bone resorption markers, decreased osteoclast surface area, minimal cortical porosity), consistent with the uncoupling of these events. This combination of anabolic and anti-catabolic actions may have significant therapeutic value in the treatment of osteoporosis.
Comparative data regarding increase in cortical bone porosity in monkey subjects using Ostabolin C at a variety of doses and using the prior art PTHs 1-34 is shown below.

[3] = test system: post-menopausal women with low bone mineral density; assay: Phase II clinical study of subcutaneous Ostabolin-C in post-menopausal women with low BMD (BMD, bone markers, serum calcium, side effects)
Description: A four month Phase II clinical study was undertaken to investigate the safety, tolerability and efficacy of Ostabolin-C™ in post-menopausal women with low bone mineral density (BMD). […] The clinical protocol is a 16-week phase II randomized, double-blind, placebo-controlled, parallel group, dose finding study to investigate the safety, tolerability and efficacy of Ostabolin-C™ in post-menopausal women with low bone mineral density (BMD). In this study, 261 patients underwent four months of daily dosing of placebo and four active groups. The active groups included daily administration of Ostabolin-C™ in doses of 7.5, 15, 30, and 45 μg. Ostabolin-C™ is formulated as a clear, colorless liquid provided in pre-filled syringes and injected subcutaneously (SC). Subjects self-administer SC 0.1 mL injections of their assigned dose of Ostabolin-C™ 7.5, 15, 30, and 45 μg or placebo daily for 16 weeks in rotating quadrants of the abdomen. The subjects were post-menopausal women (for at least 5 years) with moderate osteoporosis.
The key endpoints for the study include change in mean BMD at the lumbar spine, as assessed by dual energy x-ray absorptiometry (DEXA), and measured by change from the Baseline visit. The Baseline visit is the first visit of the patient, before undergoing any treatment. Secondary efficacy endpoints include the following, as measured by change from Baseline visit:
DEXA: Bone formation and resorption markers: • Mean femoral neck BMD • Serum osteocalcin • Mean trochanter BMD • Serum amino terminal pro-peptide of type 1 pro-collagen (P1NP) • Mean total hip BMD • Mean radial BMD (distal and midshaft) • Bone specific alkaline phosphatase (BSAP) • Bone mineral content (BMC) • Serum C-telopeptide (CTx) • Bone area • Serum N-telopeptide (NTx)

[4] = test system: rats; assay: Rat oncogenicity study, 104 weeks subcutaneous; type: in vivo; details: 0.5, 5, 30, and 50 μg/kg/day SC
Description: Prior art PTHs cause osteosarcomas in animals if administered over a course of two years. The PTH peptides of the present invention, including Ostabolin-C™ and PTH 1-30, are administered subcutaneously to rats for 104 weeks at doses of 0.5, 5, 30, and 50 μg/kg/day. The test article is administered subcutaneously. […] This difference could be due to the different amino acids sequences and/or to the different signalling pathways activated by the PTH molecules.

Molecule: CC[C@H](C)[C@H](NC(=O)[C@H](CCC(=O)O)NC(=O)[C@H](CO)NC(=O)[C@@H](NC(=O)[C@@H](N)CO)C(C)C)C(=O)N[C@@H](CCC(N)=O)C(=O)N[C@@H](CC(C)C)C(=O)N[C@@H](CCSC)C(=O)N[C@@H](Cc1c[nH]cn1)C(=O)N[C@@H](CC(N)=O)C(=O)N[C@@H](CC(C)C)C(=O)NCC(=O)N[C@@H](CCCCN)C(=O)N[C@@H](Cc1c[nH]cn1)C(=O)N[C@@H](CC(C)C)C(=O)N[C@@H](CC(N)=O)C(=O)N[C@@H](CO)C(=O)N[C@@H](CCSC)C(=O)N[C@@H](CCC(=O)O)C(=O)N[C@@H](CCCNC(=N)N)C(=O)N[C@H](C(=O)N[C@H]1CCC(=O)NCCCC[C@@H](C(=O)N[C@@H](CC(C)C)C(=O)N[C@@H](CC(C)C)C(=O)N[C@@H](CCC(N)=O)C(=O)N[C@@H](CC(=O)O)C(=O)N[C@H](C(N)=O)C(C)C)NC(=O)[C@H](CCCNC(=N)N)NC(=O)[C@H](CC(C)C)NC(=O)[C@H](Cc2c[nH]c3ccccc23)NC1=O)C(C)C [Ostabolin-C, [Leu^27]cyclo[Glu^22-Lys^26]-PTH-(1-31)-NH2] (H-SVSEIQLMHNLGKHLNSMERVEWLRKLLQDV-NH2; lactam 22-26)
- CTx ([1]; 59 kg cut): 57.5
- FN-BMD ([1]; 59 kg cut): 1.5
- LS-BMD 3% ([1]; 59 kg cut): 80.8
- LS-BMD 6% ([1]; 59 kg cut): 28.8
- P1NP ([1]; 59 kg cut): 143.5
- TH-BMD ([1]; 59 kg cut): 0.69
- Mean LS-BMD ([1]; 59 kg cut (30 μg below, 45 μg above)): 4.95
- CTx ([1]; 68 kg cut): 32.1
- FN-BMD ([1]; 68 kg cut): 0.29
- LS-BMD 3% ([1]; 68 kg cut): 78.0
- LS-BMD 6% ([1]; 68 kg cut): 29.3
- P1NP ([1]; 68 kg cut): 132.1
- TH-BMD ([1]; 68 kg cut): 0.40
- Mean LS-BMD ([1]; 68 kg cut (30 μg below, 45 μg above)): 4.65
- LS-BMD 3% ([1]; 68 kg cutoff, modeled): 76.5
- Mean LS-BMD ([1]; 68 kg cutoff, modeled): 4.57
- Bone mass (DXA, QCT) at lumbar spine, femur and tibia ([2]; 2, 10, 25 μg/kg SC daily, 52 weeks): increased
- osteoclast surface ([2]; 52 weeks): significant reduction
- Tibial cancellous bone volume increase compared to controls ([2]; all treated groups (2, 10, 25 μg/kg SC daily, 52 weeks)): more than 50%
- bone resorption stimulation as % of expected effect of 20 μg Forteo ([3]; 30 μg): approximately 50%
- CTx ([3]; 30 μg (4 months)): 1400 pM/L
- FN-BMD (%) ([3]; 30 μg (4 months)): −0.05%
- LS-BMD (%) ([3]; 30 μg (4 months)): 3.6%
- LS-BMD (%), subset with LS-BMD T score < −2.5 ([3]; 30 μg (4 months)): 4.51%
- P1NP ([3]; 30 μg (4 months)): 50.0 µg/L
- TH-BMD (%) ([3]; 30 μg (4 months)): 0.06%
- CTx ([3]; 30 ug, 4 months): 30.6
- FN-BMD ([3]; 30 ug, 4 months): −0.06
- LS-BMD 3% ([3]; 30 ug, 4 months): 59.6
- LS-BMD 6% ([3]; 30 ug, 4 months): 19.1
- Mean LS-BMD ([3]; 30 ug, 4 months): 3.72
- P1NP ([3]; 30 ug, 4 months): 117.2
- TH-BMD ([3]; 30 ug, 4 months): 0.07
- BMD in the lumbar spine ([3]; 45 μg): increase in BMD
- CTx ([3]; 45 μg (4 months)): 2900 pM/L
- FN-BMD (%) ([3]; 45 μg (4 months)): 2.75%
- LS-BMD (%) ([3]; 45 μg (4 months)): 5.2%
- LS-BMD (%), subset with LS-BMD T score < −2.5 ([3]; 45 μg (4 months)): 5.9%
- P1NP ([3]; 45 μg (4 months)): 79.5 µg/L
- TH-BMD (%) ([3]; 45 μg (4 months)): 1.45%
- Mean % Change In Femoral Neck (BMD) ([3]; 45 μg For 15 Weeks): 2.75%
- Mean % Change In Total Hip (BMD) ([3]; 45 μg For 15 Weeks): 1.44%
- Mean % Change In Trochanter (BMD) ([3]; 45 μg For 15 Weeks): 2.24%
- CTx ([3]; 45 ug, 4 months): 60.3
- FN-BMD ([3]; 45 ug, 4 months): 3.0
- LS-BMD 3% ([3]; 45 ug, 4 months): 79.5
- LS-BMD 6% ([3]; 45 ug, 4 months): 36.4
- Mean LS-BMD ([3]; 45 ug, 4 months): 5.59
- P1NP ([3]; 45 ug, 4 months): 160.5
- TH-BMD ([3]; 45 ug, 4 months): 1.6
- cortical BMD in distal and mid-shaft radius compared to placebo and Forteo ([3]; 7.5, 15, and 30 μg): increases cortical BMD
- lumbar spine BMD ([3]; 7.5, 15, and 30 μg daily, 15 weeks): increase in lumbar spine BMD
- hip, femoral neck, and trochanter BMD ([3]; low doses, 15 weeks): mild BMD increase

Molecule: PTH(1-30) (SVSEIQLMHNLGKHLNSMERVEWLRKKLQD; Parathyroid hormone; UniProt P01270 32-61, looked up, fragment) [PTH 1-30]
- incidence of osteosarcomas compared to prior art PTH peptides [4]: lower incidences of osteosarcomas
